The text below walks through data of publication PMC2918672 (Journal of molecular biology, 2010).

Square brackets hold non-standard residues; d marks the D form. Ends that are not written are not given here. Sta = CC(C)C[C@H](N)[C@@H](O)CC(=O)O

The test system of this test is L40I mutant HTLV-1 PR. Description: Inhibition of L40I mutant HTLV-1 PR, fluorescent substrate cleavage. The class given is biochemical, Human T-cell leukemia virus type 1 (HTLV-1). The note with it: test compound 50 nM; L40I mutant HTLV-1 PR 1 μg in 50 μL reaction mixture (as a dimer); substrate H-Lys([7-methoxycoumarin-4-yl]acetyl)-APQVL-(p-nitrophenylalanine)-VMHPL-OH; inverse percentage of remaining activity; single determination.

For the substance Ac-APQV[Sta]VMHP [Statine Inhibitor], the “Percent inhibition (%) at 50 nM” value was determined as 19%.
